Consider one molecule from US20240358020A1, “FORMAMIDE DERIVATIVE AND AGRICULTURAL OR HORTICULTURAL PLANT DISEASE CONTROL AGENT” (Kumiai Chemical Industry Co., Ltd., priority 2021, published 2024).

Common to all, as to format: in vivo
For assay [1], the system named is Soybean Rust (Phakopsora pachyrhizi). Briefly: Soybean rust control effect test. The note with it: sprayed on soybean seedlings at 100 g a.i./ha, then spray-inoculated; disease severity of first leaf examined after 12 to 14 days. The source says: [Test Example 1] Soybean Rust (Phakopsora pachyrhizi) Control Effect Test
Soybean seeds were sown in a pot and sprayed on the grown seedlings so that the amount of the active ingredient was 100 g a.i./ha. Thereafter, a soybean rust fungus was spray-inoculated, the pot was transferred to a wet room and was kept under dark conditions, and invasion of pathogens was promoted. Thereafter, the pot was managed in a greenhouse, after 12 to 14 days, a degree of disease severity for each first leaf was examined according to the criteria in Table 226 to determine a degree of disease severity by a calculation formula of Equation 1, and a control value was determined by a calculation formula of Equation 2.
(§1) [in the formula, N represents the total number of examined leaves, n0 represents the number of leaves having a disease severity index of 0, n1 represents the number of leaves having a disease severity index of 1, n2 represents the number of leaves having a disease severity index of 2, n3 represents the number of leaves having a disease severity index of 3, and n4 represents the number of leaves having a disease severity index of 4.]

Assay [2] deals with Rice Sheath Blight Disease (Rhizoctonia solani). Briefly: Rice sheath blight disease control effect test. The settings on record: chemical solution 50 ppm active ingredient sprayed on rice seedlings, then inoculated with bran medium culture; lesion height examined after 5 days.
Excerpt: as §1
[Test Example 3] Rice Sheath Blight Disease (Rhizoctonia solani) Control Effect Test
Rice seeds were sown in a pot, and a chemical solution was sprayed on the grown seedlings so that the concentration of the active ingredient was 50 ppm. Thereafter, a bran medium in which a rice sheath blight fungi was cultured was inoculated into the strain, the bran medium was transferred to a wet room, and invasion of pathogens was promoted. Thereafter, the pot was managed in a greenhouse, after 5 days, a lesion height was examined according to the criteria in Table 221 to determine a degree of disease severity by a calculation formula of Equation 1, and a control value was determined by a calculation formula of Equation 2.

Assay [3] has as its system Wheat rust (Puccinia recondita). Nature of the assay: Wheat rust control effect test. The settings on record: chemical solution 50 ppm active ingredient sprayed on wheat seedlings, then spray-inoculated; first leaf examined after 9 days.
Excerpt: as §1
[Test Example 2] Wheat rust (Puccinia recondita) control effect test Wheat seeds were sown in a pot, and a chemical solution was sprayed on the grown seedlings so that the concentration of the active ingredient was 50 ppm. Thereafter, a wheat rust fungus was spray-inoculated, the pot was transferred to a wet room and was kept under dark conditions, and invasion of pathogens was promoted. Thereafter, the pot was managed in a greenhouse, after 9 days, a degree of disease severity for each first leaf was examined according to the criteria in Table 220 to determine a degree of disease severity by a calculation formula of Equation 1, and a control value was determined by a calculation formula of Equation Formula 2.

As for `CCC(=O)N(Cc1ccccc1)c1ccc(-c2noc(C(F)(F)F)n2)cc1` [comparative compound], the control value entry in assay [1] was “less than 60”; in assay [2], not above 12.5; in assay [3] it was not above 12.5.
